What all share (format): cell-based
In one assay the test system is AML-12 hepatocytes. As to the kind of experiment: AML-12 hepatocytes: p21, Pah immunoblot and tyrosine production. Here is the method: (§1) Cells were washed briefly with ice-cold 1×PBS, scraped in 400 μL T-PER lysis buffer (ThermoFisher) supplemented with 0.1 mM phenylmethylsulphonyl fluoride (PMSF) and protease/phosphatase inhibitor cocktail tablet (ThermoFisher). Pulverised tissue samples (20-30 mg) were lysed in the same buffer accelerated by sonication and passing through a 21 G needle. To pellet any debris, lysates were centrifuged at 10,000 g for 10 minutes at 4° C., with the supernatant transferred to fresh tubes. Protein concentrations were determined with Bradford assay (Biorad) and lysates were diluted to equal concentration with lysis buffer. Protein lysates were then mixed with Laemmli buffer, vortexed and heated to 95° C. for 5 min. Equal amounts of protein lysates in parallel with protein molecular weight marker (ThermoFisher) were loaded onto pre-cast polyacrylamide gels (Nupage 10 or 12% Bis Tris gel, Novex, Invitrogen) and separated by electrophoresis at 200V for 1 hour. Proteins were transferred onto polyvinylidene difluoride (PVDF) membrane (Invitrogen) using an electrophoretic transfer cell (Mini Trans-Blot, Bio-Rad) in ice-cold transfer buffer (48 mM Tris base, […], 0.1% SDS, 20% methanol (v/v)) at 300 mA for 2 hours. Membranes were blocked in 1× skimmed milk (ThermoFisher) for 1 hour at room temperature, followed by overnight incubation with primary antibody diluted in blocking buffer at 4° C. Next day membranes were washed, followed by 60 minutes incubation in the corresponding horseradish peroxidase (HRP)-conjugated secondary antibody diluted 1:2000-10000 in blocking buffer (all Abcam). Blots were developed using enhanced chemiluminescence (ECL) reagents (normal, Prime & Select) and digital images were acquired using an imaging system (Azure Biosystems). Membranes were usually stripped of antibodies and reprobed with an antibody targeting a protein serving as loading control (α-actinin for hearts & β-actin for all others). For this procedure, membranes were placed in Guanidine-HCl-based stripping solution (6M Guanidine-HCl, 0.2% Nonidet P-40, 0.1M β-mercaptoethanol, 20 mM Tris-HCl, pH 7.5 and 100 mM 2-mercaptoethanol) and incubated for 10 minutes at room temperature with gentle agitation, followed by extensive washing and re-blocking.^5
AML12 cells (ATCC® CRL-2254™) were maintained in DMEM/F-12 (1:1) culture media supplemented with 10% FBS, 10 μg/ml insulin, 5.5 μg/ml transferrin, 5 ng/ml selenium, 40 ng/ml dexamethasone and 1% penicillin/streptomycin. Cells were sub-cultivated from subconfluent flasks with a ratio from 1:4 to 1:8. For WB analysis, cells were plated on 6-well plates and harvested at 80-90% of confluence. AML12 cells were transfected with indicated siRNA (Table 2) at 80% confluence using Lipofectamine RNAiMAX Transfection Reagent (ThermoFischer Scientific 13778030) following the manufacturer's instructions. Transfection efficiency was constantly checked using BLOCK-IT Alexa Fluor Red Fluorescent Control (ThermoFischer Scientific 14750100).
(§2) Levels of reduced glutathione (GSH; ThermoFisher), phenylalanine (BioVision) and tyrosine (BioVision) were determined from cells or plasma, with respective agents/kits following the manufacturer's recommendations. Specifically, GSH levels were estimated with the aid of ThiolTracker™ Violet fluorescent probe (ThermoFisher). Plasma and liver phenylalanine levels were determined using an enzyme-coupled, fluorometric method (BioVision). Briefly, samples were deproteinized via trichloroacetate precipitation, neutralised, tyrosinase-treated (to remove tyrosine that may interfere) and diluted to fit in the standard curve. Fluorescence reading took place at 587 nm after excitation at 535 nm. Levels of tyrosine in cells or conditioned media were determined after deproteinization using 10 kDa cut-off columns with an enzyme-coupled, colorimetric method with reading at 491 nm (BioVision).
A general note: In western blotting, separated proteins are transferred to a membrane and probed.

Assay [1] concerns C2C12 myoblasts. As to the kind of experiment: PA-induced senescence in C2C12 myoblasts (immunoblot of senescence markers, EdU incorporation). The note with it: C2C12 cells. As to the method:
as §1
(§3) C2C12 (ATCC® CRL-1772™) myoblasts maintained in DMEM supplemented with L-glutamine (2 mM), penicillin/streptomycin (1%) and 5% fetal bovine serum (FBS) were seeded either at a density of 5×10^4 cells (<50%) per well in 24-well plates or 10^4 cells in 4-well chamber slides. Cells were with L-phenylalanine (1-10 mM)+BH4 (10 μM) and incubation with increasing concentrations of N-acetylcysteine (0.5, 2.5, 5 mM) vs. vehicle overnight as indicated. Cells were analysed for oxidative stress with MitoSOX™ (mitochondrial superoxide; 5 μM, ThermoFisher Scientific), CellROX™ (cytosolic superoxide; 5 μM, ThermoFisher Scientific), gene or protein expression, or various metabolites (see below).

Assay [2] deals with C2C12 myoblasts. As to the kind of experiment: Oxidative stress in C2C12 cells (CellROX cytosolic superoxide, MitoSOX mitochondrial superoxide, GSH). Here is the method:
as §3, §2

For `N[C@@H](Cc1ccccc1)C(=O)O` [PA, (S)-2-Amino-3-phenylpropanoic acid], the p21 protein result in the assay on AML-12 hepatocytes (increasing concentrations of PA (0-10 mM), FIG. 4n) was “dose-dependent induction”. In the assay on C2C12 myoblasts [1] (PA 5 mM vs. vehicle, FIG. 1a), the “other markers of senescence (Cdkn2a=p16 and phospho-p53=p-p53)” value is on record as “remained unaltered”. For the same compound, in the assay with C2C12 myoblasts [1] (PA 5 mM vs. vehicle, FIG. 1a-b), the “cyclin-dependent kinase 1a (Cdkn1a=p21) protein” value is “selectively induced”. For the same compound, the EdU incorporation result with C2C12 myoblasts [1] (PA treatment, FIG. 1d) was “suppressed”. In the assay with C2C12 myoblasts [2] (as a function of PA concentration, FIG. 1e), the “cytosolic superoxide levels (CellROX probe)” value is recorded as “incrementally increased”.

Take `CC(O)C(O)C1CNc2nc(N)[nH]c(=O)c2N1` (stereo not shown) [BH4, 2-amino-6-(1,2-dihydroxypropyl)-5,6,7,8-tetrahydro-3H-pteridin-4-one]: the “Pah levels under Nutlin3a-induced senescence” value with AML-12 hepatocytes (Nutlin3a plus co-treatment, FIG. 4o, 4r) is reported as “derepressed”. The “tyrosine production / levels under Nutlin3a-induced senescence” value in the assay on AML-12 hepatocytes (Nutlin3a plus co-treatment, FIG. 4p, 4q) is recorded as “derepressed”. In the assay on C2C12 myoblasts [1] (PA 5 mM + BH4 10 μM, FIG. 1c-d), the “PA-dependent senescence (p21 protein, EdU incorporation)” value was “antagonised”. Moreover, in the assay on C2C12 myoblasts [2] (PA plus co-treatment (BH4 10 μM or NAC), FIG. 1f), the “cytosolic superoxide levels under PA treatment” value is “normalized”. The “reduced glutathione (GSH) levels under PA treatment” value with C2C12 myoblasts [2] (PA plus co-treatment, data not shown) is “restored normal”.

Source of the values: patent US20220268782A1, “METHODS FOR PREDICTING AND TREATING CARDIAC DYSFUNCTION” (INSERM (INSTITUT NATIONAL DE LA SANTÉ EAT DE LA RECHERCHE …, priority 2019, published 2022).
